Like-named read-outs stand apart in the source and are kept apart here.
Assays:
[1] = system: E. coli strain ATCC 700928; experiment: Mouse UTI model, CK570 IU or IV: bacterial burden in kidneys, bladder, urine; format: in vivo, C3H/OuJ mice; conditions: each tissue, all timepoints
Source text: The vehicle used in this study was 1×TBS. […] C3H/OuJ female mice, aged approximately 8 weeks and weighing 21 to 24 grams, were used in this study. Mice were housed with 1 to 5 animals per cage and were provided food (5P76 Prolab isopro irradiated lab diet) and water ad libitum. […] Each mouse was then placed on a board, ventral side up, with the nose inserted into a nose cone supplying isoflurane. The lower abdomen was gently massaged to expel any urine in the bladder. […] For IV administration, mice were manually restrained in a restrainer device, and study treatment was administered via the lateral tail vein. […] For IU administration, the same method was used as for the original administration of E. coli. A dose volume of 50 μL was used for IU administration. […] All CFU data were log-transformed.

[2] = system: 304 E. coli clinical isolates; format: cell-based, Escherichia coli; conditions: 304-isolate panel
Protocol: (§1) Phage cocktail CK618 was tested in combination with and alongside antibiotics against two isolate panels. The first assay used a panel of 88 contemporaneous urinary tract infection (UTI) isolates from North America, Europe, Latin America, and Asia. […] The second assay used a panel made up of a 300-strain clinical isolate panel (Table 14) with an additional 4 strains of interest. […] Four of the same SOC antibiotics tested against the 88-isolate panel were tested against this panel. The non-SOC antibiotics were not included due to their limited use in clinical settings, and nitrofurantoin was not included due to the low probability of resistance to this drug.
(§2) For both isolate panels, antibiotic concentrations tested were determined by using Clinical and Laboratory Standards Institute (CLSI) or European Committee on Antimicrobial Susceptibility Testing (EUCAST) breakpoints at concentrations that kill susceptible isolates but allow intermediate or resistant isolates to grow in the standard AST microdilution assay (Table 17).
(§3) The composition of the proposed Phase 2 CRISPR-enhanced bacteriophage (CRISPR-phage, hereafter termed ‘crPhage’) cocktail (CK618) has been updated from the CK570 to include six bacteriophages as compared to three bacteriophages in CK570. Bacteriophage cocktail CK618, was prepared such that all bacteriophages had equivalent titers in the final cocktail. The cocktail was then mixed with bacteria to obtain final titers of 1×10^6 plaque-forming unit (PFU)/mL/phage for the cocktail and 1×10^5 colony-forming unit (CFU)/mL for the bacteria, resulting in a multiplicity of infection (MOI) of 10 for each bacteriophage in a sample. Briefly, 5 μl of each sample (CK618 alone, CK618 and antibiotics, antibiotics alone, or medium alone) was added to 5 μl of optical density (OD)-normalized bacterial isolate and 40 μl LB medium. Reactions were incubated at 37° C. with shaking and OD measurements were taken each hour for 20 hours.
(§4) Host range percentage is the percent of isolates that responded to treatment of antibiotics or CK618. In the case of the 88-isolate panel, results were analyzed on the complete panel as well as the subset of classified as multidrug-resistant (MDR) (n=21) and beta-lactam-resistant (n=31).
(§5) The first assay used a panel of 88 contemporaneous isolates. Twenty-one of those strains are classified as MDR, with resistance to 3 or more antibiotic classes. […] The second assay used the panel made up of a 300-strain clinical isolate panel with an additional 4 strains of interest.
(§6) Antibiotic concentrations tested were determined by using CLSI or EUCAST breakpoints at concentrations that kill susceptible strains but allow intermediate or resistant strains to grow in the standard AST microdilution assay (Table 27). LBP-EC01 v.2 was combined with bacteria resulting in a MO of 10 for each bacteriophage in a sample. In the case of the 88-isolate panel, results were analyzed on the complete panel as well as the subset of isolates classified as multidrug-resistant (MDR) (n=21) and beta-lactam-resistant (n=31).

[3] = system: 88 urinary tract infection E. coli isolates; format: cell-based, Escherichia coli
Protocol: as §1, §2, §3, §4, §5, §6

[4] = system: E. coli (ATCC 700928); experiment: Mouse UTI model, CK618 with TMP/SMX vs single agents and Phase 1b LBP-EC01 (Study 21-LOC-035); format: in vivo, C3H/OuJ mice; conditions: BID IV at 48, 54, 72, 78, 96 hours p.i.
Protocol: For the LBP-EC01 from the Phase 1b study treatment, animals received the Phase 1 Clinical Trial Material. Bactrim was formulated at a concentration of 6.3 mg/mL.

| Compound | bacterial burden, positive control [1] | Host range % on MDR subset (n = 93), Combination: Antibiotic + LBP-CK618 [2] | Host range % on MDR subset (n = 93), Single agent treatment [2] | Host range % on beta-lactam-resistant subset (n = 91), Combination: Antibiotic + LBP-CK618 [2] | Host range % on beta-lactam-resistant subset (n = 91), Single agent treatment [2] | Host Range % on MDR Subset (n = 93), Combination Antibiotic + LBP-EC01 v.2 ([2]; MDR subset, antibiotic combined with LBP-EC01 v.2) | Host range % on MDR subset (n = 93), Single agent treatment ([2]; MDR subset, single agent) | Host Range % on all Strains (n = 304), Combination: Antibiotic + LBP-EC01 v.2 ([2]; all strains, antibiotic combined with LBP-EC01 v.2) | Host Range % on all Strains (n = 304), Single agent treatment ([2]; all strains, single agent) | Host Range % on Beta-lactam-Resistant Subset (n = 91), Combination: Antibiotic + LBP-EC01 v.2 ([2]; beta-lactam-resistant subset, antibiotic combined with LBP-EC01 v.2) | Host range % on beta-lactam-resistant subset (n = 91), Single agent treatment ([2]; beta-lactam-resistant subset, single agent) | Host Range % on Beta-lactam-Resistant Subset (n = 31), Combination: Antibiotic + CK618 v.2 ([3]; 88-isolate panel) | Host Range % on Beta-lactam-Resistant Subset (n = 31), Single agent treatment ([3]; 88-isolate panel) | Host Range % on MDR Subset (n = 21), Combination: Antibiotic + CK618 v.2 ([3]; 88-isolate panel) | Host Range % on MDR Subset (n = 21), Single agent treatment ([3]; 88-isolate panel) | Host Range % on all Strains (n = 88), Single agent treatment ([3]; antibiotic at breakpoint concentration (Table 17), cocktail 1 × 10^6 PFU/ml per bacteriophage, MOI 10) | Host Range % on all Strains (n = 88), Combination: Antibiotic + CK618 v.2 ([3]; antibiotic at breakpoint concentration plus cocktail 1 × 10^6 PFU/ml per bacteriophage) | bacterial burden in bladder relative to vehicle and LBP-EC01 from the Phase 1b study, monotherapy [4] |
| --- | --- | --- | --- | --- | --- | --- | --- | --- | --- | --- | --- | --- | --- | --- | --- | --- | --- | --- |
| O=C(O)c1cn(C2CC2)c2cc(N3CCNCC3)c(F)cc2c1=O [Ciprofloxacin] | significantly reduced bacterial burden to the LOD in each tissue | – | – | – | – | – | – | – | – | – | – | – | – | – | – | – | – | – |
| Trimethoprim/Sulfamethoxazole [TMP/SXT] | – | 75.3% | 17.2% | 78.0% | 29.7% | 75.3% | 17.2% | 81.9% | 46.4% | 78.0% | 29.7% | 83.9% | 25.8% | 82.5% | 19.0% | 42.8% | 85.6% | significant decrease in bacterial burden |

Reference: patent US20250345378A1 (priority 2022, published 2025)
